The source of these data is paper PMC6099553, “Novel Structural Insight into Inhibitors of Heme Oxygenase-1 (HO-1) by New Imidazole-Based Compounds: Biochemical and In Vitro Anticancer Activity Evaluation” (Molecules : A Journal of Synthetic Chemistry and Natural …, 2018).

As a reminder, the IC50 is the concentration needed to halve the response being measured. A word on the melting point: it is the temperature of the solid-liquid transition.

The test system of data set [1] is HO-1. Set-up: method as in PMID 23097500. To be noted: Figure 1; cited from earlier work.
Data set [2] deals with HO-2. Also noted: method as in PMID 23097500. To be noted: Figure 1; cited from earlier work.
In another data set the test system is MDA-MB-231 cells. The experiment in a line: In vitro cytotoxicity, sulforhodamine B assay, MDA-MB-231. The class given is cell-based. To be noted: Homo sapiens, hormone-resistant breast cancer cells, 72 h, SRB. The procedure:
(§1) MDA-MB-231 cells (hormone resistant), MCF-7 (hormone sensitive), PC3 cells (hormone resistant), DU145 cells (hormone resistant), LnCap cells (hormone sensitive), B16, and HEK cells were maintained in complete growth media (DMEM/Ham’s F12 supplemented with 10% fetal bovine serum, […], 100 units/mL penicillin, 100 units/mL of streptomycin, and 2.2 g/L of NaHCO3) at 37 °C in a humidified atmosphere of 5% CO2. For all procedures, cells were harvested using TrypLE Express (Life Technologies, Auckland, New Zealand).
(§2) To test the cytotoxic effect of HO inhibitors, cells (8 × 10^3 cells/well) were seeded into 96-well plates and incubated for 24 h. This was followed by treatment with HO inhibitors at the concentrations 1.1–200 μM (1.1–1000 μM for HEK cells) of compound 1. In addition, the cytotoxicity of doxorubicin (5 μM, 10 μM, and 30 μM) and a combination of doxorubicin 5 μM and 37 μM 1 was assessed using B16 cells. In all experiments, the cells were incubated for 72 h. Following the incubation, cells were fixed using 10% trichloroacetic acid (TCA). Cytotoxicity was determined using the sulforhodamine B assay as previously described. […] Treatments were performed in triplicate and data represents mean of three independent experiments.
Background: The SRB assay estimates cell density from bound dye.

The next data set concerns MCF-7 cells. The experiment in a line: In vitro cytotoxicity, sulforhodamine B assay, MCF-7. To be noted: Homo sapiens, MCF7; hormone-sensitive breast cancer cells, 72 h, SRB. The class given is cell-based. The procedure: as §1
To test the cytotoxic effect of HO inhibitors, cells (8 × 10^3 cells/well) were seeded into 96-well plates and incubated for 24 h. This was followed by treatment with HO inhibitors at the concentrations 1.1–200 μM (1.1–1000 μM for HEK cells) of compound 1. In addition, the cytotoxicity of doxorubicin (5 μM, 10 μM, and 30 μM) and a combination of doxorubicin 5 μM and 37 μM 1 was assessed using B16 cells. In all experiments, the cells were incubated for 72 h. Following the incubation, cells were fixed using 10% trichloroacetic acid (TCA). Cytotoxicity was determined using the sulforhodamine B assay as previously described. […]
Figure 3 Cytotoxicity of compound 1 against MCF-7 and B16 cells. […] At the end of treatment, cell number was determined using the sulforhodamine B assay. Data are expressed as mean ± SEM (n = 3). […]

For a further data set, the system named is DU145 cells. The experiment in a line: In vitro cytotoxicity, sulforhodamine B assay, DU145. The class given is cell-based. To be noted: Homo sapiens, DU-145; hormone-resistant prostate cancer cells, 72 h, SRB. The procedure:
as §1, §2

The next data set concerns PC3 cells. The experiment in a line: In vitro cytotoxicity, sulforhodamine B assay, PC3. The class given is cell-based. To be noted: Homo sapiens, PC-3; hormone-resistant prostate cancer cells, 72 h, SRB. As to the method: as §1, §2
In a further data set the test system is LnCap cells. Put plainly: In vitro cytotoxicity, sulforhodamine B assay, LnCap. The class given is cell-based. To be noted: Homo sapiens, hormone-sensitive prostate cancer cells, 72 h, SRB. As to the method: as §1, §2
For the next data set, the system named is B16 cells. Put plainly: In vitro cytotoxicity, sulforhodamine B assay, B16 (alone and with doxorubicin). The class given is cell-based, murine. The settings on record: for IC50: murine melanoma cells, 72 h, SRB. The procedure: as §1
To test the cytotoxic effect of HO inhibitors, cells (8 × 10^3 cells/well) were seeded into 96-well plates and incubated for 24 h. This was followed by treatment with HO inhibitors at the concentrations 1.1–200 μM (1.1–1000 μM for HEK cells) of compound 1. […] In all experiments, the cells were incubated for 72 h. Following the incubation, cells were fixed using 10% trichloroacetic acid (TCA). Cytotoxicity was determined using the sulforhodamine B assay as previously described. […] Treatments were performed in triplicate and data represents mean of three independent experiments.
Figure 3 Cytotoxicity of compound 1 against MCF-7 and B16 cells. (A) MCF-7 (hormone-sensitive breast cancer cells) and (B) B16 (melanoma) cells were treated with 1.1–200 μM of compound 1 for 72 h. Control wells were treated with vehicle only (0.2% DMSO). At the end of treatment, cell number was determined using the sulforhodamine B assay. Data are expressed as mean ± SEM (n = 3). Non-linear regression and IC50 values determination were performed using GraphPad Prism 6.
Figure 4 Cytotoxicity of compound 1 in combination with different concentration of doxorubicin (doxo) against B16 cells. Data are expressed as mean ± SEM (n = 3). *** Significant vs. untreated control cells: p < 0.001.

The test system of the next data set is HEK cells. Put plainly: In vitro cytotoxicity, sulforhodamine B assay, HEK (healthy cells). The class given is cell-based, human. The procedure: as §1, §2
Data set [3] deals with T1, HO-1 (Rattus norvegicus, UniProt P06762).
T1 construct: selected in order to use the most native (i.e., closest to in vivo) forms of HO-1 and HO-2; from tissue; host or cells: spleen microsomal fraction of male Sprague-Dawley rats
T1 sequence (P06762 1-289): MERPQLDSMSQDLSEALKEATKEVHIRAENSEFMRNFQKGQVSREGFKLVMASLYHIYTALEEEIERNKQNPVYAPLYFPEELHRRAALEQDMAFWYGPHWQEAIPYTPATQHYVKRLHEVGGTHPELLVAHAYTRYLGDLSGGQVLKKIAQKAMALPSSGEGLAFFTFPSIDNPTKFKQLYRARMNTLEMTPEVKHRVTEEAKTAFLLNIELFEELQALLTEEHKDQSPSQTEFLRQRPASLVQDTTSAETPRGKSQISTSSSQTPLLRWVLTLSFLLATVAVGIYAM
The experiment in a line: HO-1 inhibition, rat spleen microsomal fraction, bilirubin formation. The class given is biochemical. The settings on record: for IC50: rat spleen microsomes, mean ± SD, triplicate. As to the method: Inhibition activity assay for HO-1 was performed by extracting the enzyme from the rat spleen microsomal fraction. HO-1 activity was determined by measuring the formation of BR using the difference in absorbance at 464–530 nm, as described in the experimental section. Inhibition activity data are expressed as IC50 (μM) and obtained results are outlined in Table 2, utilizing Azalanstat as a reference compound.
HO-1 and HO-2 were obtained from rat spleen and brain, respectively, as the microsomal fraction prepared by differential centrifugation; the dominance of HO-1 protein in the rat spleen and of HO-2 in the rat brain has been well documented. These particular microsomal preparations were selected in order to use the most native (i.e., closest to in vivo) forms of HO-1 and HO-2. Spleen and brain (Sprague–Dawley rats) microsomal fractions were prepared according to the procedure outlined by Ryter et al.. The experiments reported in the present paper complied with current Italian law and met the guidelines of the Institutional Animal Care and Use Committee of University of Catania (Italy). The experiments were performed in male Sprague–Dawley albino rats (150 g body weight and age 45 d). They had free access to water and were kept at room temperature with a natural photo-period (12 h light-12 h dark cycle). For measuring HO-1 and HO-2 activities, each rat was sacrificed and their spleen and brain were excised and weighed. A homogenate (15%, w/v) of spleens and brains pooled from four rats was prepared in ice-cold HO-homogenizing buffer (50 mM Tris buffer, pH 7.4, containing 0.25 M sucrose) using a Potter–Elvehjem homogenizing system with a Teflon pestle. The microsomal fraction of rat spleen and brain homogenate was obtained by centrifugation at 10,000 rpm for 20 min at 4 °C, followed by centrifugation of the supernatant at 100,000 rpm for 60 min at 4 °C. The 100,000 rpm pellet (microsomes) was resuspended in 100 mM potassium phosphate buffer, pH 7.8, containing 2 mM MgCl2 with a Potter–Elvehjem homogenizing system. The rat spleen and brain microsomal fractions were divided into equal aliquots, placed into microcentrifuge tubes, and stored at −80 °C for up to 2 months. Protein concentration of the microsomal fraction was determined by Lowry method.
(§3) Liver cytosol has been used as a source of biliverdin reductase (BVR). […] The 100,000 rpm supernatant was saved and then stored in small amounts at −80 °C after its protein concentration was measured.
(§4) The HO-1 and HO-2 activities were determined by measuring the BR formation using the difference in absorbance at 464 to 530 nm as described by Ryter et al.. […] After recovering the chloroform phase, the amount of BR formed was measured with a double-beam spectrophotometer as OD464-530 nm (extinction coefficient, 40 mM/cm^−1 for BR). […]

The target of data set [4] is T2, HO-2 (Rattus norvegicus, UniProt P23711).
T2 construct: selected in order to use the most native (i.e., closest to in vivo) forms of HO-1 and HO-2; from tissue; host or cells: brain microsomal fraction of male Sprague-Dawley rats
T2 sequence (P23711 1-315): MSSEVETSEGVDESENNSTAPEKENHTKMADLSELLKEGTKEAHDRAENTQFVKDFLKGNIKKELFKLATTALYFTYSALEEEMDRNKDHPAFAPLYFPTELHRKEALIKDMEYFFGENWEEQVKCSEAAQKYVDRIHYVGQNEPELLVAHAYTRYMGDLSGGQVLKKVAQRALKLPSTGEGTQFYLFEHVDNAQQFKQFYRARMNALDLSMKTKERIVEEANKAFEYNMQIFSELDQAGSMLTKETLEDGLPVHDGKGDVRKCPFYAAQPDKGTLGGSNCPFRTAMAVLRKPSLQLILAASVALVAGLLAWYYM
Put plainly: HO-2 inhibition, rat brain microsomal fraction, bilirubin formation. The class given is biochemical. The settings on record: rat brain microsomes; mean ± SD, triplicate. As to the method: HO-1 and HO-2 were obtained from rat spleen and brain, respectively, as the microsomal fraction prepared by differential centrifugation; the dominance of HO-1 protein in the rat spleen and of HO-2 in the rat brain has been well documented. These particular microsomal preparations were selected in order to use the most native (i.e., closest to in vivo) forms of HO-1 and HO-2. Spleen and brain (Sprague–Dawley rats) microsomal fractions were prepared according to the procedure outlined by Ryter et al.. The experiments reported in the present paper complied with current Italian law and met the guidelines of the Institutional Animal Care and Use Committee of University of Catania (Italy). The experiments were performed in male Sprague–Dawley albino rats (150 g body weight and age 45 d). […] Protein concentration of the microsomal fraction was determined by Lowry method.
as §3, §4

The structures appear in SMILES notation. Some results are limits rather than exact numbers.

As for `Nc1ccc(SC[C@@H]2CO[C@](CCc3ccc(Cl)cc3)(Cn3ccnc3)O2)cc1` [Azalanstat], the figures for the IC50 in the data set with HO-1 [1] and with HO-2 [2] were 5.3 µM and 24.4 µM, respectively.

Consider `OC(Cn1ccnc1)c1cccc(Br)c1` (stereo not drawn) [Compound 1], for which the concentration for half-maximal inhibition (IC50) came out at 82.6 ± 0.57 µM with MDA-MB-231 cells; 52.6 ± 3.76 µM with MCF-7 cells; 138 ± 2.7 µM with DU145 cells; 165 ± 2.8 µM with PC3 cells; 158 ± 2.3 µM in the data set on LnCap cells; 42 µM with B16 cells (Mus musculus, B16, 72 h). Further, the IC50 came out at 37 ± 7.25 µM in the data set on B16 cells and 364 ± 21.3 µM with HEK cells (HEK293, non-cancerous human embryonic kidney cells, 72 h, SRB). In the data set on B16 cells (compound 1 (10 μM) with doxorubicin (5 μM), B16 cells), the “Cytotoxic effect in combination with doxorubicin” value was “synergistic cytotoxic effect”. In addition, the “Selectivity for cancer cells with respect to healthy cells” value with HEK cells (cancer cell lines vs HEK) is recorded as 2–10 fold.

For the molecule `Brc1cccc(C(Cn2ccnc2)OCc2ccccc2)c1` (stereo not drawn) [Compound 2, 1-[2-(3-Bromophenyl)-2-(phenylmethoxy)ethyl]-1H-imidazole], the half-inhibitory concentration (IC50) against HO-1 [3] is 80 ± 3.3 µM. Besides, the “fold less potent towards HO-1 than parent compound 1” value at HO-1 [3] (ratio of HO-1 IC50 values) is “around 200 fold”.

In turn, `O=C(Cn1ccnc1)NC(c1ccccc1)c1ccccc1` [Compound 3, N-Benzhydryl-2-(1H-imidazol-1-yl)acetamide] came in with a melting point of 196 to 197 °C. The molecule further registered a 50% inhibitory concentration (IC50) against HO-1 [3] of 28.8 ± 1.4 µM. Moreover, inhibition on HO-2 [4] was half-maximal at 14.4 ± 0.9 µM (IC50).

For the molecule `OC(Cn1ccnc1)C12CC3CC(CC(C3)C1)C2` (stereo not drawn) [Compound 4, 2-(1H-Imidazol-1-yl)-1-tricyclo[3.3.1.13,7]dec-1-yl-ethanol], the melting point was in the range of 182 to 183 °C. The molecule further yielded an IC50 at HO-1 [3] of 67.6 ± 2.1 µM.

In the case of `Clc1ccc(CCC2(Cn3ccnc3)OCCO2)cc1` [QC-15], the concentration for half-maximal inhibition (IC50) in the data set with HO-1 [1] was 2.8 µM; with HO-2 [2], more than 100 µM.

Consider `FC(F)(F)c1ccc(SC[C@@H]2CO[C@@](CCc3ccc(Cl)cc3)(Cn3ccnc3)O2)nc1` [QC-80], for which the half-maximal inhibitory concentration (IC50) in the data set on HO-1 [1] was 2.1 µM; with HO-2 [2], 16 µM.

On to `O=C(Cn1ccnc1)C12CC3CC(CC(C3)C1)C2` [QC-82], for which the IC50 is 3 µM in the data set on HO-1 [1] and more than 100 µM in the data set with HO-2 [2].

On to `O=C(CCc1ccccc1)Cn1cncn1` [QC-86], for which, in the data set with HO-2 [2], the concentration for half-maximal inhibition (IC50) is 18 µM.

Regarding `O=C(CC(c1ccccc1)c1ccccc1)Cn1ccnc1` [QC-308], the 50% inhibitory concentration (IC50) in the data set with HO-2 [2] was […].
